Drawing on patent US7204984B2, “Acetyllysine-recognizing monoclonal antibody and process for producing the same” (Japan Science and Technology Corporation, priority 2001, dated 2007), this text covers acetylation of histone for one compound.

Non-standard residues stand in square brackets, D forms with d. Residues, ends and D or L forms follow the SMILES beside them. *: point of attachment. Asu = N[C@@H](CCCCCC(=O)O)C(=O)O; NHOH = ON*

The experiment concerns histone-deacetylase. The experiment is described as follows: Histone acetylation in cells treated with CHAP31 (Western blotting). The class given is cell-based. Conditions: 1 μM, 24 hours, detected with Clone-1 antibody. Here is the method:
Five types of cells, B16/BL6, MOLT-4F, HeLa-S3, COS-1, and COS-7 were treated with, 1 μM of histone-deacetylase inhibitor, CHAP31, for 24 hours, and then cell lysates were prepared and developed on an electrophoresis, followed by detecting acetylated proteins using the above four antibodies as primary antibodies. In FIGS. 2, A, B, C, and D indicate the results of the detections using Clone-1, Clone-2, Clone-3, and Clone-4, respectively. The concentration of the primary antibodies used for the Western blotting were 107 ng/ml, 65.7 ng/ml, 258 ng/ml, and 158 ng/ml, respectively, and each of these concentration provide the same reactivity (A492=1) in ELISA where acetylated bovine serum albumin was immobilized. The total cell lysates were prepared from the cells (+) after subjecting each cell in the 1 μM CHAP31 treatment for 24 hours or the cells (−) without the treatment. In each lane, 20 μg of protein was loaded. Five types of cells being used were 1: B16/BL6, 2: MOLT-4F, 3: HeLa-S3, 4: COS-1, and 5: COS-7, respectively.

In the case of `CC[C@H](C)[C@@H]1NC(=O)[C@@H](Cc2ccc(OC)cc2)NC(=O)[C@H](CCCCCC(=O)NO)NC(=O)[C@H]2CCCN2C1=O` [CHAP31] (cyclo([Asu](NHOH)[dY](Me)I[dP])), the acetylation of histone result is “increased”.
